# Experimental data as given in ChEMBL document CHEMBL1151313, “Isolation and structure elucidation of new PKCalpha inhibitors from Pinus flexilis” (J Nat Prod, 1998).
# Target: Protein kinase C alpha type (Homo sapiens, UniProt P17252)
# Assay: Inhibition of human recombinant PKCalpha
row,SMILES,IC50 [µM]
1,OC[C@H]1O[C@@H](O[C@H](CCCCc2ccc(O)c(O)c2)CCc2ccc(O)c(O)c2)[C@H](O)[C@@H](O)[C@@H]1O,2.83
2,Oc1ccc(CCCC[C@@H](O)CCc2ccc(O)c(O)c2)cc1O,4.81
3,O=C(/C=C/CCc1ccc(O)c(O)c1)CCc1ccc(O)c(O)c1 [DEHYDROHIRSUTANONOL],4.26
4,O=C(CCc1ccc(O)c(O)c1)C[C@@H](O)CCc1ccc(O)c(O)c1 [HIRSUTANONOL],13.3
5,O=C(CCc1ccc(O)c(O)c1)C[C@H](CCc1ccc(O)c(O)c1)O[C@@H]1OC[C@@H](O)[C@H](O)[C@H]1O [OREGONIN],18
